The source of these data is US10028961B2, “Therapeutically active compounds and their methods of use” (AGIOS PHARMACEUTICALS, INC., priority 2013, dated 2018).

Assay [1] addresses IDH1 wt/IDH1 R132H heterodimer (Homo sapiens (Human), UniProt O75874, R132H). The assay can be described thus: In vitro assay for IDH1m R132H inhibitors, IDH1 wt/IDH1 R132H heterodimer, NADPH depletion (diaphorase/resazurin). The following applies: IDH1 wt/R132H heterodimer, NADPH/NADP, not saturated; read-out: IDH1 wt/R132H NADPH/NADP IC50 not saturated. Type of assay: biochemical. In short, it runs like this: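 Read-out is NADPH left after α-KG reduction to 2-HG, measured via resorufin fluorescence after 5 min diaphorase/resazurin step at 25° C. Enzyme is sf9-expressed IDH1wt-his/IDH1R132H-flag heterodimer, pre-incubated 1 hr at room temperature with compound and cofactor. IC50s from DMSO stocks diluted 1:50.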
On the technique in general: Alamar Blue is a resazurin reagent that responds to reducing activity.

The target in assay [2] is IDH1-R132H homodimer enzyme (Homo sapiens (Human), UniProt O75874, R132H). The assay can be described thus: In vitro assay IDH1-R132H homodimer, NADPH depletion assay with NADPH/NADP preincubation. Type of assay: biochemical. The following applies: 5 μM NADPH and 37.5 μM NADP. In short, it runs like this:
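Compounds were added from DMSO at 50× final concentration, and the mutant enzyme was incubated 60 min at room temperature after starting with a substrate mix holding NADPH and 5 mM alpha-ketoglutarate. Residual cofactor, read by fluorescence after excess diaphorase and resazurin, reflects enzyme turnover.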

The target in assay [3] is IDH2 R140Q (Homo sapiens (Human), UniProt P48735, R140Q). The assay can be described thus: In vitro assay for IDH2m R140Q inhibitors, cofactor depletion assay. Type of assay: biochemical. The following applies: IDH2 R140Q enzyme. In short, it runs like this: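 Remaining cofactor measured fluorimetrically: diaphorase/resazurin Stop Mix […], halting the reaction. Before that, mutant enzyme and compound sat 1 h at RT, then substrate mix (4 μM NADPH, 1.6 mM α-KG) was added for 16 h at RT.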
IDH2 R140Q, sequence (P48735 40-452 R140Q): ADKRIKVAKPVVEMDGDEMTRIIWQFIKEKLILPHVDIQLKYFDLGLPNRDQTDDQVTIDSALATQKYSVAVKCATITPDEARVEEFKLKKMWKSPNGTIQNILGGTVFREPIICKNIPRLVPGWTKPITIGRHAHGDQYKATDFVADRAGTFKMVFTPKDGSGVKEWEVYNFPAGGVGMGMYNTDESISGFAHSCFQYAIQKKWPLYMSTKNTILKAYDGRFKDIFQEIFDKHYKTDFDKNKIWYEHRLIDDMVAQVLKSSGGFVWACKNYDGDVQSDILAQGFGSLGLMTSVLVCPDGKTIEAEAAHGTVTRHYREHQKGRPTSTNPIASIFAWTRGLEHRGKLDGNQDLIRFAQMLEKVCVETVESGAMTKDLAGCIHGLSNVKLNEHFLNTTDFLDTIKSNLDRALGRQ

For assay [4], the system named is HT1080 cells. The assay can be described thus: Cellular assay for IDH1m R132C inhibitors, 2-HG by LC-MS in HT1080 cells. Type of assay: cell-based. The following applies: Homo sapiens, HT-1080. Here is the method:
The following describes the experimental procedures that can be used to obtain data on column 5 of Table 4.
Cells (HT1080 or U87MG) are grown in T125 flasks in DMEM containing 10% FBS, 1× penicillin/streptomycin and 500 ug/mL G418 (present in U87MG cells only). They are harvested by trypsin and seeded into 96 well white bottom plates at a density of 5000 cell/well in 100 ul/well in DMEM with 10% FBS. No cells are placed in columns 1 and 12. Cells are incubated overnight at 37° C. in 5% CO2. The next day test compounds are made up at 2× the final concentration and 100 ul are added to each cell well. The final concentration of DMSO is 0.2% and the DMSO control wells are plated in row G. The plates are then placed in the incubator for 48 hours. At 48 hours, 100 ul of media is removed from each well and analyzed by LC-MS for 2-HG concentrations. The cell plate is placed back in the incubator for another 24 hours. At 72 hours post compound addition, 10 mL/plate of Promega Cell Titer Glo reagent is thawed and mixed. The cell plate is removed from the incubator and allowed to equilibrate to room temperature. Then 100 ul of Promega Cell Titer Glo reagent is added to each well of media. The cell plate is then placed on an orbital shaker for 10 minutes and then allowed to sit at room temperature for 20 minutes. The plate is then read for luminescence with an integration time of 500 ms.
HT1080 cells are maintained in RPMI containing 10% FBS, 1× penicillin/streptomycin. […] The next day compounds are prepared in 100% DMSO and then diluted in media for a final concentration of 0.2% DMSO. Media is removed from the cell plates and 200 μL of the compound dilutions are added to each well. […] The cell plates are then allowed to incubate another 24 hours.

Assay [5] relates to U87MG pLVX-IDH2 R140Q-neo cells. The assay can be described thus: U87MG pLVX-IDH2 R140Q-neo cell based assay, 2-HG by LC-MS. The following applies: Homo sapiens, U-87 MG.
Assay [6] relates to Neurosphere cells (TS603). The assay can be described thus: Cellular assay for IDH1m R132H inhibitors, 2-HG by LC-MS in neurosphere cells (TS603). Type of assay: cell-based. The following applies: 2-HG in media at 48 hours. In outline: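 TS603 neurosphere cells in NeuroCult medium were dosed with compound (0.25% DMSO final) at 37 C, 5% CO2. After 48 hours, medium 2-HG was measured by LC-MS. At 72 hours, viability was read by CellTiter-Glo luminescence.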

IDH1-R132H homodimer enzyme, sequence (O75874 whole entry R132H): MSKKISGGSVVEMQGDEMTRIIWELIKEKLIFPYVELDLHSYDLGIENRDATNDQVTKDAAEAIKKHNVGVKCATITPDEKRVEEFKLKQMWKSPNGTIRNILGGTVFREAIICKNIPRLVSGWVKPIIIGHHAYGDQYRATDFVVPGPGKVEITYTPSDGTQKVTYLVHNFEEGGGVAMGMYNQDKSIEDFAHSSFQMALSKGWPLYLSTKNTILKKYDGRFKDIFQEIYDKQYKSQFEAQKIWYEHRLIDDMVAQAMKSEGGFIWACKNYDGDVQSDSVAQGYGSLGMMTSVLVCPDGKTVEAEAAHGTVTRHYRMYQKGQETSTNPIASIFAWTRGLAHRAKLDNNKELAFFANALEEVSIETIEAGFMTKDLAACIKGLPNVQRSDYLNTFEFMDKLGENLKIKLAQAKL
IDH1 wt/IDH1 R132H heterodimer, sequence (O75874 whole entry R132H): as above
IDH1 wt/IDH1 R132H heterodimer, sequence (O75874 whole entry, stated change not applied): as the sequence (O75874 whole entry R132H) above, with H132R counted along it

With `FC1(F)CC[C@@H](Nc2nc(N[C@H]3CCC(F)(F)C3)nc(-c3cccc(C(F)(F)F)n3)n2)C1` [Compound 102], the IC50 in assay [1], in assay [2], in assay [3], in assay [4], in assay [5] and in assay [6] was < 50 nM throughout.
Consider `CC(Nc1nc(NC(C)C(F)(F)F)nc(-n2ccc(C(F)(F)F)n2)n1)C(F)(F)F` (stereo not drawn) [Compound 141], for which the IC50 in assay [1], in assay [2], in assay [3], in assay [4], in assay [5] and in assay [6] was < 50 nM throughout.
With `N#Cc1cc(F)cc(Nc2nc(NC3CC(F)(F)C3)nc(-n3ccc(C(F)(F)F)n3)n2)c1` [Compound 140], the IC50 in assay [1] is < 50 nM; in assay [2], < 50 nM; in assay [3], < 50 nM; in assay [4], 100 to 1000 nM; in assay [5] it was < 50 nM; in assay [6], < 50 nM.
Consider `N#Cc1cc(Nc2nc(NC3CCC(F)(F)C3)nc(-n3ccc(C(F)(F)F)n3)n2)ccn1` (stereo not drawn) [Compound 179], for which the IC50 in assay [1] was < 50 nM; in assay [2] it was < 50 nM; in assay [3] it was < 50 nM; in assay [4] it was 100 to 1000 nM; in assay [5], < 50 nM; in assay [6], < 50 nM.
Turning to `FC1(F)CCC(Nc2nc(NC3CCC(F)(F)C3)nc(-c3ccnc(C(F)(F)F)n3)n2)C1` (stereo not drawn) [Compound 194], the IC50 in assay [1] was < 50 nM; in assay [2] it was 100 to 1000 nM; in assay [3], 50 to 100 nM; in assay [4], 50 to 100 nM; in assay [5], 50 to 100 nM; in assay [6] it was < 50 nM.
For `N#CC1(c2cc(Nc3nc(NCC(F)(F)F)nc(-c4cccc(Cl)n4)n3)ccn2)CC1` [Compound 215], the IC50 was < 50 nM in assay [1]; 50 to 100 nM in assay [2]; < 50 nM in assay [3]; 100 to 1000 nM in assay [4]; < 50 nM in assay [5]; < 50 nM in assay [6].
Regarding `CC(Nc1nc(Nc2ccnc(-c3ccccc3)c2)nc(-c2cccc(C(F)(F)F)n2)n1)C(F)(F)F` (stereo not drawn) [Compound 217], the IC50 in assay [1] is < 50 nM; in assay [2], 50 to 100 nM; in assay [3] it was < 50 nM; in assay [4], 100 to 1000 nM; in assay [5] it was < 50 nM; in assay [6], < 50 nM.
For the compound `Fc1cc(F)cc(Nc2nc(NC3CCC(F)(F)C3)nc(-c3nc(C(F)(F)F)cs3)n2)c1` (stereo not drawn) [Compound 159], the IC50 is < 50 nM in assay [1]; < 50 nM in assay [2]; < 50 nM in assay [3]; 100 to 1000 nM in assay [4]; < 50 nM in assay [5]; < 50 nM in assay [6].
Regarding `Fc1cc(F)cc(Nc2nc(NC3CCC(F)(F)C3)nc(-n3ccc(C(F)(F)F)n3)n2)c1` (stereo not drawn) [Compound 108], the IC50 in assay [1] is < 50 nM; in assay [2] it was < 50 nM; in assay [3] it was < 50 nM; in assay [4], 50 to 100 nM; in assay [5], < 50 nM; in assay [6], < 50 nM.
Take `N#Cc1cc(Nc2nc(NC3CC(F)(F)C3)nc(-n3ccc(C(F)(F)F)n3)n2)ccn1` [Compound 210]: the IC50 in assay [1] is < 50 nM; in assay [2], 50 to 100 nM; in assay [3], < 50 nM; in assay [4] it was 100 to 1000 nM; in assay [5], < 50 nM; in assay [6] it was < 50 nM.
Turning to `CC(Nc1nc(Nc2cc(F)cc(C#N)c2)nc(-n2ccc(C(F)(F)F)n2)n1)C(F)(F)F` (stereo not drawn) [Compound 119], the IC50 is < 50 nM in assay [1]; < 50 nM in assay [2]; < 50 nM in assay [3]; 50 to 100 nM in assay [4]; < 50 nM in assay [5]; < 50 nM in assay [6].
Turning to `CC(Nc1nc(NC(C)C(F)(F)F)nc(-c2cncc(Cl)n2)n1)C(F)(F)F` (stereo not drawn) [Compound 156], the IC50 in assay [1], in assay [2], in assay [3], in assay [4], in assay [5] and in assay [6] was < 50 nM in each case.
`FC1(F)CC(Nc2nc(NC3CC(F)(F)C3)nc(-c3cncc(Cl)n3)n2)C1` [Compound 144]: the IC50 in assay [1], in assay [2], in assay [3], in assay [4], in assay [5] and in assay [6] was < 50 nM throughout.
As to `CC(Nc1nc(Nc2cc(F)cc(F)c2)nc(-n2ccc(C(F)(F)F)n2)n1)C(F)(F)F` (stereo not drawn) [Compound 107], the IC50 is < 50 nM in assay [1]; < 50 nM in assay [2]; < 50 nM in assay [3]; 100 to 1000 nM in assay [4]; < 50 nM in assay [5]; < 50 nM in assay [6].
On to `C[C@@H](Nc1nc(Nc2ccnc(C#N)c2)nc(-n2ccc(C(F)(F)F)n2)n1)C(F)(F)F` [Compound 207], for which the IC50 was < 50 nM in assay [1]; 50 to 100 nM in assay [2]; < 50 nM in assay [3]; 100 to 1000 nM in assay [4]; < 50 nM in assay [5]; < 50 nM in assay [6].
On to `FC1(F)CCC(Nc2nc(NC3CCC(F)(F)CC3)nc(-c3cccc(Cl)n3)n2)CC1` [Compound 212], for which the IC50 was < 50 nM in assay [1]; 100 to 1000 nM in assay [2]; < 50 nM in assay [3]; 50 to 100 nM in assay [4]; < 50 nM in assay [5]; < 50 nM in assay [6].
Regarding `FC1(F)CC(Nc2nc(NC3CC(F)(F)C3)nc(-c3ccnc(C(F)(F)F)n3)n2)C1` [Compound 251], the IC50 was 50 to 100 nM in assay [1]; 100 to 1000 nM in assay [2]; < 50 nM in assay [3]; 100 to 1000 nM in assay [4]; 100 to 1000 nM in assay [5]; < 50 nM in assay [6].
In the case of `FC1(F)CC[C@@H](Nc2nc(N[C@@H]3CCC(F)(F)C3)nc(-c3cccc(C(F)(F)F)n3)n2)C1` [Compound 111], the IC50 in assay [1], in assay [2], in assay [3], in assay [4], in assay [5] and in assay [6] was < 50 nM throughout.
Take `FC(F)(F)c1cc(Nc2nc(NCC3CC3)nc(-c3cccc(Cl)n3)n2)ccn1` [Compound 200]: the IC50 was < 50 nM in assay [1]; 50 to 100 nM in assay [2]; < 50 nM in assay [3]; > 1000 nM in assay [4]; < 50 nM in assay [5]; < 50 nM in assay [6].
`FC(F)(F)CNc1nc(Nc2ccnc(C(F)(F)F)c2)nc(-c2cccc(C(F)(F)F)n2)n1` [Compound 232]: the IC50 was < 50 nM in assay [1]; 100 to 1000 nM in assay [2]; < 50 nM in assay [3]; > 1000 nM in assay [4]; < 50 nM in assay [5]; < 50 nM in assay [6].
For the compound `Fc1cc(F)cc(Nc2nc(NC3CC(F)(F)C3)nc(-c3nc(F)ccc3F)n2)c1` [Compound 195], the IC50 in assay [1] was < 50 nM; in assay [2] it was 50 to 100 nM; in assay [3], < 50 nM; in assay [4], 100 to 1000 nM; in assay [5] it was < 50 nM; in assay [6], < 50 nM.
For `CC[C@H](Nc1nc(N[C@@H](CC)C(F)(F)F)nc(-c2cccc(Cl)n2)n1)C(F)(F)F` [Compound 180], the IC50 was < 50 nM in assay [1]; < 50 nM in assay [2]; 50 to 100 nM in assay [3]; < 50 nM in assay [4]; 100 to 1000 nM in assay [5]; < 50 nM in assay [6].
